Activity calls are given as the source filed them.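 The calls were made as follows: active = fitted curve reaches 40% activation below the top valid tested dose, in every test run; inconclusive = test runs disagree on the call; inactive = the rest, including effects opposite to the expected direction.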

A short description of one assay: E-selectin inducers in HUVECs, dose response, imaging, HUVEC, cherry-picked samples (AID 977605).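 Also: signal is the share of imaged cells scored positive for E-selectin.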 The note with it: HUVEC E-selectin immunostaining, at 19.5 µM (top of the series).
As to `Cc1cccc(CN2CCCC(C(=O)c3ccc4c(c3)OCO4)C2)n1` (centres undefined), the activation was 4.78% (inactive).

Staying with this assay, now noted: HUVEC E-selectin immunostaining, at 19.5 µM (top of the series), percent of TNF-alpha response over vehicle.
As to `C[C@H](CO)N1C[C@H](C)[C@@H](CN(C)C(=O)NC2CCCCC2)Oc2ccc(NS(=O)(=O)c3ccccc3)cc2C1=O`, the activation is -0.099% (inactive).
Take `C[C@@H]1CN([C@@H](C)CO)C(=O)c2cccc(NS(=O)(=O)c3ccc(F)cc3)c2O[C@H]1CN(C)Cc1ccc(C(=O)O)cc1`: the activation is -0.15% (inactive).
`COc1ccc(C(=O)N(CCc2ccccc2)Cc2ccccc2)c(OC)n1`: the activation was -0.136% (inactive).
Turning to `Cc1ccc(S(=O)(=O)N(C)C[C@@H]2Oc3ccc(N(C)C)cc3C(=O)N([C@H](C)CO)C[C@H]2C)cc1`, the activation was 0.022% (inactive).
Same read-out and setting: with `C[C@H]1CN([C@@H](C)CO)C(=O)c2cc(NC(=O)CCN3CCOCC3)ccc2O[C@@H]1CN(C)S(=O)(=O)c1ccc(Cl)cc1` the figure was -0.142% (inactive); with `COc1ccc(S(=O)(=O)Nc2ccc3c(c2)C(=O)N([C@H](C)CO)C[C@@H](C)[C@H](CN(C)Cc2ccc(Cl)c(Cl)c2)O3)cc1`, -0.125% (inactive).
For the compound `CC(C)c1ccc(C(=O)Nc2nnc(S(=O)(=O)N3CCCCC3)s2)cc1`, the activation is -0.055% (inactive).
As for `Cn1nc(C(=O)NNC(=O)c2ccccc2Br)c2ccccc2c1=O`, the activation is -0.008% (inactive).
As for `CC(C)CC#Cc1ccc2c(c1)O[C@H](CN(C)Cc1ccncc1)[C@H](C)CN([C@@H](C)CO)S2(=O)=O`, the activation is -0.038% (inactive).
As to `C[C@H]1CN([C@@H](C)CO)C(=O)c2cc(NC(=O)NC3CCCCC3)ccc2O[C@@H]1CN(C)S(=O)(=O)c1ccc(Cl)cc1`, the activation was 2.58% (inactive).
With `CCOC(=O)c1sc(NC(=O)CN2C(=O)C3CC=CCC3C2=O)nc1C` (centres undefined), the activation was 0.503% (inactive).
Turning to `C[C@H](CO)N1C[C@H](C)[C@H](CN(C)CC2CC2)Oc2c(NC(=O)C3CC3)cccc2C1=O`, the activation is -0.037% (inactive).
Same read-out and setting: then `O=C(NC1CCCC1)c1cc(-c2ccccc2O)on1`, with 0.323% (inactive); and `COc1ccc(OC)c(NC(=O)c2ccc(CSc3ncccn3)cc2)c1`, with 0.128% (inactive); and `CC(C)NC(=O)N(C)C[C@@H]1Oc2ccc(NS(=O)(=O)c3cccs3)cc2CC(=O)N([C@@H](C)CO)C[C@H]1C`, with 0.096% (inactive).
Same read-out and setting: then `C[C@@H]1CN([C@H](C)CO)C(=O)Cc2cc(NC(=O)CCN3CCOCC3)ccc2O[C@H]1CN(C)S(C)(=O)=O`, with 0.606% (inactive).
On the same count and under the same terms, then `COc1cccc(CNC(=O)CN2C(=O)COc3ccc(S(=O)(=O)N4CCCCCC4)cc32)c1`, with -0.081% (inactive); and `COCC(=O)N(C)C[C@H]1Oc2cc(-c3ccc(F)cc3)ccc2S(=O)(=O)N([C@@H](C)CO)C[C@H]1C`, with -0.091% (inactive); and `C[C@H](CO)N1C[C@H](C)[C@H](CN(C)S(=O)(=O)c2ccc(Cl)cc2)Oc2ccc(NC(=O)NC3CCCCC3)cc2C1=O`, with -0.048% (inactive).
For the compound `CNC[C@H]1Oc2ccc(N(C)C)cc2C(=O)N([C@@H](C)CO)C[C@H]1C`, the activation is 0.27% (inactive).
The same measure, in the same setting: with `C[C@@H]1CN([C@@H](C)CO)C(=O)c2cc(NC(=O)Cc3ccccc3)ccc2O[C@@H]1CN(C)C(=O)Nc1cccc2ccccc12` the figure was -0.101% (inactive); with `COc1ccccc1N1CCN(C(=O)c2ccco2)CC1`, 1.75% (inactive); with `COc1cc(OC)cc(N(C(=O)c2snc(C(N)=O)c2N)C(C(=O)NCC2CCCO2)c2ccc(C)o2)c1` (centres undefined), -0.112% (inactive).
Turning to `C[C@H](CO)N1C[C@H](C)[C@H](CN(C)C(=O)Nc2ccccc2)Oc2c(NS(=O)(=O)c3cccs3)cccc2C1=O`, the activation is -0.044% (inactive).
`C[C@H](CO)N1C[C@H](C)[C@H](CN(C)C(=O)c2ccc3c(c2)OCO3)Oc2cc(-c3ccccc3)ccc2S1(=O)=O`: the activation was -0.242% (inactive).
With `C[C@@H]1CN([C@H](C)CO)C(=O)c2cccc(NC(=O)Nc3ccccc3)c2O[C@@H]1CN(C)S(=O)(=O)c1ccccc1`, the activation is 0.268% (inactive).
On to `C[C@@H]1CN([C@H](C)CO)C(=O)c2cc(C3=CCCC3)cnc2O[C@H]1CN(C)C(=O)Nc1ccccc1`, for which the activation is -0.157% (inactive).
On the same count and under the same terms, with `C[C@@H]1CN([C@H](C)CO)C(=O)c2cc(NC(=O)CCCCCC(=O)Nc3ccccc3N)ccc2O[C@@H]1CN(C)C(=O)Nc1ccc2c(c1)OCO2` the figure was -0.103% (inactive).
The same measure, in the same setting: then `OC(Cc1ccccc1Br)c1ncc(-c2ccc(Cl)cc2)[nH]1` (centres undefined), with 1.34% (inactive); and `C[C@H]1CN([C@@H](C)CO)C(=O)Cc2cc(NC(=O)Nc3cccc4ccccc34)ccc2O[C@@H]1CN(C)C(=O)Nc1ccc(C(F)(F)F)cc1`, with 14.8% (inactive).
`C[C@@H]1CN([C@@H](C)CO)C(=O)c2cccc(NS(=O)(=O)c3ccc(Cl)cc3)c2O[C@H]1CN(C)C(=O)Nc1ccc2c(c1)OCO2`: the activation was -0.05% (inactive).
The same measure, in the same setting: then `O=C(CN(Cc1ccc(F)cc1)C(=O)CNS(=O)(=O)c1ccc(F)cc1)NCc1ccco1`, with -0.246% (inactive); and `CCN(Cc1ccccc1)S(=O)(=O)c1ccc(OC)c2ncccc12`, with -0.178% (inactive); and `C[C@@H]1CN([C@@H](C)CO)C(=O)Cc2cc(NC(=O)NC3CCCCC3)ccc2O[C@H]1CN(C)C(=O)Nc1ccc2c(c1)OCO2`, with 16.7% (inactive).
Same read-out and setting: with `COc1ccc(CN(C)C[C@H]2Oc3ccc(N(C)C)cc3CC(=O)N([C@H](C)CO)C[C@H]2C)cc1` the figure was 0.315% (inactive); with `C[C@@H]1CN([C@@H](C)CO)C(=O)Cc2cc(NC(=O)Cn3cnnn3)ccc2O[C@H]1CN(C)C(=O)Nc1ccc(F)cc1`, 0.031% (inactive); with `COc1ccc(OCCN2CCN(S(=O)(=O)c3ccccc3C(F)(F)F)CC2)cc1`, -0.023% (inactive).
Same read-out and setting: with `Cc1cc(C)nc(NC(N)=NC(C)c2ccccc2)n1` (centres undefined) the figure was -0.07% (inactive); with `CC(C)(C)CC(=O)Nc1ccc(-c2cn3cccnc3n2)cc1`, 0.057% (inactive); with `C[C@@H]1CN([C@H](C)CO)C(=O)c2cc(NC(=O)Nc3ccc4c(c3)OCO4)ccc2O[C@H]1CN(C)S(=O)(=O)c1ccc(F)cc1`, -0.11% (inactive).
Turning to `O=C(COC(=O)c1ccccc1NCCO)NNC(=O)c1cccs1`, the activation is -0.279% (inactive).
On the same count and under the same terms, then `C[C@H](CO)N1C[C@H](C)[C@@H](CN(C)S(=O)(=O)c2ccc(Cl)cc2)Oc2ccc(NS(=O)(=O)c3ccc(F)cc3)cc2CC1=O`, with -0.113% (inactive); and `COc1ccc(NC(=O)N(C)C[C@H]2Oc3c(NS(=O)(=O)c4cn(C)cn4)cccc3C(=O)N([C@@H](C)CO)C[C@@H]2C)cc1`, with 0.542% (inactive).
Regarding `C[C@H]1CN([C@@H](C)CO)C(=O)c2cccc(NC(=O)C3CC3)c2O[C@H]1CN(C)Cc1ccccc1`, the activation was 1.36% (inactive).
Take `CN(Cc1cccc2ncccc12)C(=O)CC1C(=O)NCCN1Cc1ccc(F)cc1` (centres undefined): the activation was -0.111% (inactive).
Still for that read-out and setting: then `Cc1[nH]c(=O)c(C#N)cc1-c1ccncc1`, with -0.055% (inactive).
With `Cc1ccc(SCc2cc(=O)n(C)[nH]2)cc1`, the activation was 0.221% (inactive).
Turning to `C[C@@H]1CN([C@H](C)CO)C(=O)c2cc(NS(C)(=O)=O)ccc2O[C@@H]1CN(C)Cc1ccc(C(F)(F)F)cc1`, the activation is -0.068% (inactive).
Still for that read-out and setting: then `O=C(NCc1ccc(F)cc1)c1cc(C2CCCCN2C(=O)CCCc2ccccc2)on1` (centres undefined), with -0.164% (inactive); and `C[C@@H]1CN([C@@H](C)CO)C(=O)c2cccc(NC(=O)c3ccc(-c4nccs4)cc3)c2O[C@H]1CN(C)Cc1ccc(Oc2ccccc2)cc1`, with 3.4% (inactive); and `C[C@@H]1CN([C@H](C)CO)C(=O)c2cc(NS(=O)(=O)c3ccccc3)ccc2O[C@H]1CN(C)C(=O)NC1CCCCC1`, with 0.289% (inactive).
On the same count and under the same terms, then `O=C(COC(=O)CCC(=O)c1ccc(F)cc1)Nc1cccc(S(=O)(=O)N2CCCC2)c1`, with 2.61% (inactive); and `CC(C)NC(=O)Nc1ccc2c(c1)CC(=O)N([C@@H](C)CO)C[C@H](C)[C@H](CN(C)Cc1ccc(C(=O)O)cc1)O2`, with 0.025% (inactive); and `Cc1noc(C)c1NC(=O)Nc1ccc2c(c1)CC(=O)N([C@H](C)CO)C[C@@H](C)[C@H](CN(C)C(=O)Nc1ccc(F)cc1)O2`, with -0.18% (inactive).

The assay is the same for the next values; noted with them: HUVEC E-selectin immunostaining, at 21 µM (top of the series), percent of TNF-alpha response over vehicle.
For the compound `C[C@@H]1CN([C@H](C)CO)C(=O)Cc2cc(NC(=O)Cc3cn(C)c4ccccc34)ccc2O[C@@H]1CN(C)Cc1ccc(C(F)(F)F)cc1`, the activation was 0.433% (inactive).
The same measure, in the same setting: with `C[C@H](CO)N1C[C@H](C)[C@H](CN(C)S(C)(=O)=O)Oc2ccc(NC(=O)C3CCCCC3)cc2C1=O` the figure was -0.059% (inactive); with `C[C@@H]1CN([C@H](C)CO)C(=O)c2cc(NC(=O)C3CCCCC3)ccc2O[C@H]1CN(C)C(=O)Nc1ccc2c(c1)OCO2`, 4.77% (inactive); with `CC(C)NC(=O)N(C)C[C@@H]1Oc2ccc(NC(=O)Cn3cnnn3)cc2C(=O)N([C@H](C)CO)C[C@H]1C`, -0.15% (inactive).
Turning to `C[C@@H]1CN([C@H](C)CO)C(=O)c2cccc(NS(=O)(=O)c3cn(C)cn3)c2O[C@H]1CN(C)C(=O)Nc1ccc(F)cc1`, the activation was 6% (inactive).
Still for that read-out and setting: with `Cc1noc(C)c1NC(=O)Nc1cccc2c1O[C@@H](CN(C)CC1CCCCC1)[C@H](C)CN([C@@H](C)CO)C2=O` the figure was -0.074% (inactive).
Consider `COc1ccc(S(=O)(=O)N(C)C[C@@H]2Oc3ccc(NC(=O)CCCN(C)C)cc3C(=O)N([C@@H](C)CO)C[C@@H]2C)cc1`, for which the activation was -0.143% (inactive).
Still for that read-out and setting: with `CC(C)NC(=O)Nc1ccc2c(c1)CC(=O)N([C@H](C)CO)C[C@H](C)[C@@H](CN(C)Cc1ccc(C(=O)O)cc1)O2` the figure was -0.068% (inactive); with `C[C@H]1CN([C@@H](C)CO)C(=O)Cc2cc(NS(C)(=O)=O)ccc2O[C@@H]1CN(C)Cc1ccc(Oc2ccccc2)cc1`, 4.65% (inactive).

The values are drawn from PubChem BioAssay AID977605 (Broad Institute, 2014).
